Data: patent US9604899B2, “Bipolar trans carotenoid salts and their uses” (Diffusion Pharmaceuticals LLC, priority 2002, dated 2017)

What was measured:
[1] = solubility in sodium carbonate-deionized water solution (pH 8.0); assay type: physicochemical; conditions: pH 8, aqueous buffer, thermodynamic from solid, pH 8.0, room temperature, read-out: solubility in water adjusted to pH 8.0 with very dilute sodium carbonate
Procedure: A BTCS such as TSC dissolves in very dilute sodium carbonate solutions. A dilute, eg 0.00001-0.001M, solution of sodium carbonate can be added, dropwise, to deionized water until the pH is 8.0 (the pH of deionized water is usually 5-6). This only takes a few drops of the very dilute sodium carbonate per, say, 50 mls of deionized water. This sodium carbonate-deionized water solution is capable of completely dissolving a large amount of TSC (around 10 mg/ml)—which is remarkable considering the hydrophobicity of the carotenoid portion of the BTCS.

[2] = dissolution in normal (isotonic) saline and other salt solutions; assay type: physicochemical; conditions: up to several milligrams per ml added
Procedure: Large volumes (as much as 3 times the estimated blood loss) of isotonic saline (also called normal saline) are infused as a treatment for hemorrhagic shock. The isotonic saline contains 9 g NaCl per liter of water so as not to disturb the ionic strength of the plasma once it is infused into the body. […] About 50% of the TSC dissolves in normal saline no matter how much TSC is added (up to several milligrams per ml), which means that undissolved particles of TSC are still present. […] The actual composition of the stock solution can be verified using UV-visible spectroscopy. This stock solution can be added to normal saline and the TSC remains dissolved.
This method can be used to dissolve a BTCS in other types of sodium chloride solutions, as well as in solutions of other salts such as KCl, Na2SO4, lactate, etc. Several, eg 1-3 mg/ml, can be put into solution in this manner.

[3] = solubility in common organic solvents; assay type: physicochemical; conditions: chloroform, DMSO, pyridine, methanol, acetone, glacial acetic acid
Description: Attempts were made to dissolve TSC in order to obtain a ^1H NMR spectrum. […] The TSC produced from this project was characterized by IR, UV, HPLC and elemental analyses. […] UV and HPLC were consistent with authentic TSC.^7 Elemental analyses gave satisfactory values.

[4] = diffusivity of oxygen through aqueous solutions
hemorrhaged rats [5] = experiment: hemorrhagic shock in rats (Roy et al); conditions: rat, in vivo
Procedure: In Roy et al, Shock 10, 213-7. (1998), hemorrhaged rats (55% blood volume) were given a bolus of trans sodium crocetinate (TSC) after the hemorrhage ended, followed by saline after another 30 minutes. […] Whole-body oxygen consumption increased in the TSC group, reaching 75% of normal resting value after about 15 minutes.

[6] = TSC by inhalation, drug in blood stream; assay type: in vivo, rat; conditions: rats
Procedure: TSC has been given to rats via an inhalation route. Ten rats were given TSC directly into the lungs. This was done by inserting a tube into the trachea, and nebulizing 0.2 ml of TSC solution (TSC dissolved in dilute sodium carbonate solution) with about 3 to 6 mls of air. For all dosages studied (0.5-2 mg/kg), about 20% of the drug was present in the blood stream within one minute after it was given.

[7] = oral administration of TSC (gavage), drug in blood stream; assay type: in vivo, rat; conditions: two rats, 15 to 30 minutes after being given
Description: TSC has been shown, in rats, to be absorbed into the blood stream when administered orally (via a gavage technique). […] The maximum amount absorbed orally actually occurred earlier than that time.

[8] = simulated TSC molecule surrounded with water molecules; cited from earlier work
hemorrhaged rats [9] = conditions: cited from earlier work
[10] = test system: rat model of acute hypoxia; conditions: 10% oxygen air mixture, TSC given after 10 minutes; cited from earlier work
[11] = stability (aqueous solution, dry form); conditions: tap, distilled, deionized water
[12] = background statement; cited from earlier work

Row | SMILES | solubility [1] [µg/mL] | fraction of added TSC that dissolves in normal saline [2] | solubility in most common organic solvents [3] | increase of diffusivity of oxygen through aqueous solutions [4] | oxygen consumption of rats undergoing hemorrhagic shock (hemorrhaged rats [5]) | period the drug was present in the blood stream ([6]; inhalation, 0.8-1.6 mg/kg) | fraction of the drug present in the blood stream ([6]; nebulized into trachea, 0.5-2 mg/kg, within one minute) | fraction of the dosage given present in the blood stream [7] [%] | computational increase in diffusivity [8] [%] | whole-body oxygen consumption (hemorrhaged rats [9]; hemorrhaged rats, after about 15 minutes) | survival (hemorrhaged rats [9]; rats hemorrhaged 55% blood volume, TSC bolus after hemorrhage, saline after 30 minutes) | survival and hemodynamic stability [10] | solubility in deionized water versus normal water (solubility in water) | solubility (solubility in water; water) [µg/mL] | stability of solutions in water [11] | solubility in water [12]
1 | CC(/C=C/C=C(\C)C(=O)[O-])=C\C=C\C=C(C)\C=C\C=C(/C)C(=O)[O-].[Na+].[Na+] [TSC, Trans Sodium Crocetinate] | ~10000 | About 50% | practically insoluble | about 30% | increase the oxygen consumption | at least two hours | about 20% | 1 to 2 | ~30 | 75 % of normal resting value | All of the TSC-treated animals lived | all survived with good hemodynamic stability for over two hours | more soluble in deionized water | ~10000 | only stable if the pH is adjusted so as to make the solution basic | 
2 | CC(/C=C/C=C(\C)C(=O)O)=C\C=C\C=C(C)\C=C\C=C(/C)C(=O)O [crocetin] |  |  |  |  |  |  |  |  |  |  |  |  |  |  |  | only sparingly soluble in water
3 | CC(/C=C/C=C(\C)C(=O)O[C@@H]1O[C@H](CO[C@@H]2O[C@H](CO)[C@@H](O)[C@H](O)[C@H]2O)[C@@H](O)[C@H](O)[C@H]1O)=C\C=C\C=C(C)\C=C\C=C(/C)C(=O)O[C@@H]1O[C@H](CO[C@@H]2O[C@H](CO)[C@@H](O)[C@H](O)[C@H]2O)[C@@H](O)[C@H](O)[C@H]1O [crocin] |  |  |  |  |  |  |  |  |  |  |  |  |  |  |  | significant solubility in water
